US20170007615A1, “Antibacterial Compounds” (priority 2014, published 2017)
≈ marks a conversion by molar mass, not a printed value.

Columns and labels:
[1] = system: S. aureus (ATCC 29213); assay: Antibacterial activity (MIC), Gram-positive type strain; type: cell-based, Staphylococcus aureus; conditions: Table 13; for MIC: Staphylococcus aureus, ATCC29213
[2] = system: N. gonorrheae (ATCC 49226); assay: Antibacterial activity (MIC), Gram-negative type strain; type: cell-based, Neisseria gonorrhoeae; conditions: Table 13; for MIC: Neisseria gonorrhoeae, ATCC49226
[3] = system: E. faecalis (ATCC 29212); assay: Antibacterial activity (MIC), Gram-positive type strain; type: cell-based, Enteroccocus faecalis; conditions: Table 13; for MIC: Enterococcus faecalis, ATCC29212
[4] = system: H. influenzae (ATCC 49247); assay: Antibacterial activity (MIC), Gram-negative type strain; type: cell-based, Haemophilus influenzae; conditions: Table 13; for MIC: Haemophilus influenzae, ATCC49247

Compound	MIC [1] [µg/mL]	MIC [2] [µg/mL]	MIC [3] [µg/mL]	MIC [4] [µg/mL]	MIC vs. S. aureus (ATCC 29213) [1] [µg/mL]	MIC vs. N. gonorrheae (ATCC 49226) [2]	MIC vs. E. faecalis (ATCC 29212) [3]	MIC vs. H. influenzae (ATCC 49247) [4] [µg/mL]
CCNC(=O)Nc1nc2cc(-c3cnc(NS(=O)(=O)N4CC(OC)C4)nc3)cc(-c3ccccn3)c2s1 [Compound A-49, N-(5-(2-(3-ethylureido)-7-(pyridin-2-yl)benzo[d]thiazol-5-yl)pyrimidin-2-yl)-3-methoxyazetidine-1-sulfonamide]	1 (≈ 1.85 µM)	0.25 (≈ 0.462 µM)	0.25 (≈ 0.462 µM)	2 (≈ 3.7 µM)				
CCNC(=O)Nc1nc2cc(-c3cnc(NS(=O)(=O)NC)nc3)cc(-c3ccc(C)cn3)c2s1 [Compound A-42, 1-ethyl-3-[7-(5-methyl-2-pyridyl)-5-[2-(methylsulfamoylamino)pyrimidin-5-yl]-1,3-benzothiazol-2-yl]urea]	0.06 (≈ 0.12 µM)	≤ 0.008	≤ 0.008	0.03 (≈ 0.0602 µM)				
CCNC(=O)Nc1nc2cc(-c3cnc(NS(=O)(=O)N4CC[C@@H](O)C4)nc3)cc(-c3ccc(C)cn3)c2s1 [Compound A-59, (R)—N-(5-(2-(3-ethylureido)-7-(5-methylpyridin-2-yl)benzo[d]thiazol-5-yl)pyrimidin-2-yl)-3-hydroxypyrrolidine-1-sulfonamide]	0.12 (≈ 0.216 µM)	0.015 (≈ 0.027 µM)	0.015 (≈ 0.027 µM)	0.03 (≈ 0.0541 µM)				
CCNC(=O)Nc1nc2cc(-c3cnc(NS(=O)(=O)C4CCCC4)nc3)cc(-c3ccccn3)c2s1 [Compound A-35, N-(5-(2-(3-ethylureido)-7-(pyridin-2-yl)benzo[d]thiazol-5-yl)pyrimidin-2-yl)cyclopentanesulfonamide]	≤ 0.008	≤ 0.008	≤ 0.008	0.03 (≈ 0.0573 µM)				
CCNC(=O)Nc1nc2cc(-c3cnc(NS(=O)(=O)C(C)C)nc3)cc(-c3ccc(C)cn3)c2s1 [Compound A-48, N-(5-(2-(3-ethylureido)-7-(5-methylpyridin-2-yl)benzo[d]thiazol-5-yl)pyrimidin-2-yl)propane-2-sulfonamide]	0.015 (≈ 0.0293 µM)	≤ 0.008	≤ 0.008	0.03 (≈ 0.0586 µM)				
CCNC(=O)Nc1nc2cc(-c3cnc(NS(=O)(=O)N(C)C)nc3)cc(-c3ccc(C)cn3)c2s1 [Compound A-38, 1-[5-[2-(dimethylsulfamoylamino)pyrimidin-5-yl]-7-(5-methyl-2-pyridyl)-1,3-benzothiazol-2-yl]-3-ethyl urea]	0.015 (≈ 0.0293 µM)	≤ 0.008	≤ 0.008	0.03 (≈ 0.0585 µM)				
CCNC(=O)Nc1nc2cc(-c3ccc(N4CCCS4(=O)=O)nc3)cc(-c3ccccn3)c2s1 [Compound A-25, 1-[5-[6-(1,1-dioxo-1,2-thiazolidin-2-yl)-3-pyridyl]-7-(2-pyridyl)-1,3-benzothiazol-2-yl]-3-ethylurea]	0.06 (≈ 0.121 µM)	0.5 (≈ 1.01 µM)	0.06 (≈ 0.121 µM)	1 (≈ 2.02 µM)				
CCNC(=O)Nc1nc2cc(-c3cnc(NS(=O)(=O)CC)nc3)cc(-c3ccc(C)cn3)c2s1 [Compound A-47, N-(5-(2-(3-ethylureido)-7-(5-methylpyridin-2-yl)benzo[d]thiazol-5-yl)pyrimidin-2-yl)ethanesulfonamide]	0.015 (≈ 0.0301 µM)	≤ 0.008	≤ 0.008	≤ 0.008				
CCNC(=O)Nc1nc2cc(-c3cnc(NS(=O)(=O)C[C@@H](N)Cc4ccccc4)nc3)cc(-c3ccc(C)cn3)c2s1 [Compound A-46, (S)-2-amino-N-(5-(2-(3-ethylureido)-7-(5-methylpyridin-2-yl)benzo[d]thiazol-5-yl)pyrimidin-2-yl)-3-phenylpropane-1-sulfonamide]	1 (≈ 1.66 µM)	0.06 (≈ 0.0995 µM)	0.25 (≈ 0.415 µM)	2 (≈ 3.32 µM)				
CCNC(=O)Nc1nc2cc(-c3cnc(NS(=O)(=O)NCC)nc3)cc(-c3ccc(C)cn3)c2s1 [Compound A-39, 1-ethyl-3-[5-[2-(ethylsulfamoylamino)pyrimidin-5-yl]-7-(5-methyl-2-pyridyl)-1,3-benzothiazol-2-yl]urea]	0.015 (≈ 0.0293 µM)	0.015 (≈ 0.0293 µM)	≤ 0.008	0.03 (≈ 0.0585 µM)				
CCNC(=O)Nc1nc2cc(-c3cnc(NS(=O)(=O)C4CC4)nc3)cc(-c3ccc(C)cn3)c2s1 [Compound A-40, N-(5-(2-(3-ethylureido)-7-(5-methylpyridin-2-yl)benzo[d]thiazol-5-yl)pyrimidin-2-yl)cyclopropanesulfonamide]	0.015 (≈ 0.0294 µM)	≤ 0.008	≤ 0.008	0.015 (≈ 0.0294 µM)				
CCCS(=O)(=O)Nc1ncc(-c2cc(-c3ccccn3)c3sc(NC(=O)NCC)nc3c2)cn1 [Compound A-33, N-(5-(2-(3-ethylureido)-7-(pyridin-2-yl)benzo[d]thiazol-5-yl)pyrimidin-2-yl)propane-1-sulfonamide]	0.25 (≈ 0.502 µM)	0.03 (≈ 0.0603 µM)	0.03 (≈ 0.0603 µM)	0.12 (≈ 0.241 µM)				
CCNC(=O)Nc1nc2cc(-c3cnc(NS(=O)(=O)NC)nc3)cc(-c3ccccn3)c2s1 [Compound A-41, 1-ethyl-3-[5-[2-(methylsulfamoylamino)pyrimidin-5-yl]-7-(2-pyridyl)-1,3-benzothiazol-2-yl]urea]	0.5 (≈ 1.03 µM)	0.015 (≈ 0.031 µM)	≤ 0.008	0.06 (≈ 0.124 µM)				
CCNC(=O)Nc1nc2cc(-c3cnc(NS(=O)(=O)N4CCCC4)nc3)cc(-c3ccccn3)c2s1 [Compound A-45, N-(5-(2-(3-ethylureido)-7-(pyridin-2-yl)benzo[d]thiazol-5-yl)pyrimidin-2-yl)pyrrolidine-1-sulfonamide]	0.015 (≈ 0.0286 µM)	≤ 0.008	≤ 0.008	0.06 (≈ 0.114 µM)				
N-(5-(2-(3-ethylureido)-7-(pyridin-2-yl)benzo[d]thiazol-5-yl)pyrimidin-2-yl)morpholine-4-sulfonamide [Compound A-43]					0.12	<=0.008 μg/ml	<=0.008 μg/ml	0.03
CCNC(=O)Nc1nc2cc(-c3cnc(NS(=O)(=O)N4CC(OC)C4)nc3)cc(-c3ccc(C)cn3)c2s1 [Compound A-50, N-(5-(2-(3-ethylureido)-7-(5-methylpyridin-2-yl)benzo[d]thiazol-5-yl)pyrimidin-2-yl)-3-methoxyazetidine-1-sulfonamide]	0.5 (≈ 0.901 µM)	0.25 (≈ 0.451 µM)	0.03 (≈ 0.0541 µM)	4 (≈ 7.21 µM)				
CCNC(=O)Nc1nc2cc(-c3cnc(NS(=O)(=O)C4CCNC4)nc3)cc(-c3ccc(C)cn3)c2s1 (stereo not shown) [Compound A-53, N-(5-(2-(3-ethylureido)-7-(5-methylpyridin-2-yl)benzo[d]thiazol-5-yl)pyrimidin-2-yl)pyrrolidine-3-sulfonamide]	> 64	2 (≈ 3.71 µM)	0.5 (≈ 0.928 µM)	> 64				
CCNC(=O)Nc1nc2cc(-c3cnc(NS(=O)(=O)N4CC[C@@H](N5CCOCC5)C4)nc3)cc(-c3ccc(C)cn3)c2s1 [Compound A-56, (R)—N-(5-(2-(3-ethylureido)-7-(5-methylpyridin-2-yl)benzo[d]thiazol-5-yl)pyrimidin-2-yl)-3-morpholinopyrrolidine-1-sulfonamide]	0.06 (≈ 0.0962 µM)	0.06 (≈ 0.0962 µM)	0.015 (≈ 0.024 µM)	0.12 (≈ 0.192 µM)				
CCNC(=O)Nc1nc2cc(-c3cnc(NS(=O)(=O)N4CC[C@@H](N(C)C)C4)nc3)cc(-c3ccc(C)cn3)c2s1 [Compound A-57, (R)-3-(dimethylamino)-N-(5-(2-(3-ethylureido)-7-(5-methylpyridin-2-yl)benzo[d]thiazol-5-yl)pyrimidin-2-yl)pyrrolidine-1-sulfonamide]	0.25 (≈ 0.43 µM)	0.12 (≈ 0.206 µM)	0.03 (≈ 0.0516 µM)	0.5 (≈ 0.86 µM)				
CCNC(=O)Nc1nc2cc(-c3cnc(NS(=O)(=O)CC)nc3)cc(-c3ccccn3)c2s1 [Compound A-36, N-(5-(2-(3-ethylureido)-7-(pyridin-2-yl)benzo[d]thiazol-5-yl)pyrimidin-2-yl)ethanesulfonamide]	0.25 (≈ 0.517 µM)	≤ 0.008	≤ 0.008	0.03 (≈ 0.062 µM)				
CCNC(=O)Nc1nc2cc(-c3cnc(NS(=O)(=O)CCN4CCOCC4)nc3)cc(-c3ccc(C)cn3)c2s1 [Compound A-52, N-(5-(2-(3-ethylureido)-7-(5-methylpyridin-2-yl)benzo[d]thiazol-5-yl)pyrimidin-2-yl)-2-morpholinoethanesulfonamide]	0.5 (≈ 0.858 µM)	0.03 (≈ 0.0515 µM)	0.12 (≈ 0.206 µM)	0.12 (≈ 0.206 µM)				
CCNC(=O)Nc1nc2cc(-c3cnc(NS(=O)(=O)N4CC[C@H](O)C4)nc3)cc(-c3ccc(C)cn3)c2s1 [Compound A-60, (S)—N-(5-(2-(3-ethylureido)-7-(5-methylpyridin-2-yl)benzo[d]thiazol-5-yl)pyrimidin-2-yl)-3-hydroxypyrrolidine-1-sulfonamide]	0.12 (≈ 0.216 µM)	≤ 0.008	0.06 (≈ 0.108 µM)	0.03 (≈ 0.0541 µM)				
CCNC(=O)Nc1nc2cc(-c3cnc(NS(=O)(=O)C(C)(C)C)nc3)c(F)cc2s1 [Compound A-61, N-(5-(2-(3-ethylureido)-6-fluorobenzo[d]thiazol-5-yl)pyrimidin-2-yl)-2-methylpropane-2-sulfonamide]	0.06 (≈ 0.133 µM)	0.25 (≈ 0.552 µM)	0.06 (≈ 0.133 µM)	0.12 (≈ 0.265 µM)				
CCNC(=O)Nc1nc2cc(-c3cnc(NS(=O)(=O)N(C)C)nc3)cc(-c3ccccn3)c2s1 [Compound A-32, 1-[5-[2-(dimethylsulfamoylamino)pyrimidin-5-yl]-7-(2-pyridyl)-1,3-benzothiazol-2-yl]-3-ethyl urea]	0.12 (≈ 0.241 µM)	0.03 (≈ 0.0602 µM)	0.015 (≈ 0.0301 µM)	0.015 (≈ 0.0301 µM)				
N-(5-(2-(3-ethylureido)-7-(5-methylpyridin-2-yl)benzo[d]thiazol-5-yl)pyrimidin-2-yl)-N-methylmethanesulfonamide [Compound A-29]					0.25	0.25 µg/mL	0.06 µg/mL	2
